Read-outs that look alike come from different tables or passages of the source.

Holding throughout (assay type): biochemical, Gluconobacter oxydans DSM No. 4025 (FERM BP-3812)
Experiment [1] deals with T1, aldehyde dehydrogenase (ADH) (Ketogulonicigenium vulgare, UniProt Q402A8).
T1 sequence (Q402A8 32-609): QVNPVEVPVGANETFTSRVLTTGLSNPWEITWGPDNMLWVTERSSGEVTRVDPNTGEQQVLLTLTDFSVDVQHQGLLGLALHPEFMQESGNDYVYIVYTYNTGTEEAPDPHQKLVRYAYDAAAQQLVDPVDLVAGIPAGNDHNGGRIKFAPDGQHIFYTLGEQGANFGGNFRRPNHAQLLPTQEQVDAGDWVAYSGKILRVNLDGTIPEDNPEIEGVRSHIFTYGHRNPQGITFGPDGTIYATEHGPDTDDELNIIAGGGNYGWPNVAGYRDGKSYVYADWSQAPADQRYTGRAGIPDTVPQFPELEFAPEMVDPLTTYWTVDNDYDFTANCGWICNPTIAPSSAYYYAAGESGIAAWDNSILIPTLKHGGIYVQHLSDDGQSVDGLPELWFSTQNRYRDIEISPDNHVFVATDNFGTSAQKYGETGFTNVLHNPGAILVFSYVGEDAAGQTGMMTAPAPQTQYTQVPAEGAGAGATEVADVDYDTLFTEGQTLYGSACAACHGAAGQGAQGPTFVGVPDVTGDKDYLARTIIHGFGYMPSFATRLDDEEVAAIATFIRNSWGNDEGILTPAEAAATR
The experiment can be described thus: Identification of the oxidation products. As for the experimental part:
The reaction mixture containing the purified enzyme (1.56 mg), L-sorbosone (0.142 mg), PMS (0.008 mg) and PQQ (0.3 mg) in 40μl of the buffer was incubated for 1.5 hours at 30° C. The reaction product was analyzed on thin layer chromatography and HPLC. As a result, the reaction product was identified as 2-KGA in comparison with an authentic sample of 2-KGA.

In experiment [2] the target is T1, aldehyde dehydrogenase (ADH). The experiment can be described thus: Prosthetic group: PQQ requirement of the purified enzyme. The note with it: added to basal reaction mixture without PQQ.
Experiment [3] has the same target. The experiment can be described thus: Electron acceptor suitability for oxidation of L-sorbosone to 2-KGA. An excerpt:
This was affirmed by the failure of the enzyme to convert L-sorbosone to 2-KGA using oxygen as a possible electron acceptor. Furthermore, no oxygen consumption was detected in the reaction mixture as detected with a dissolved oxygen probe. […] However, other conventional electron acceptors can be utilized in conjunction with the enzyme of this invention. DCIP, PMS, ferricyanide and cytochrome c are preferred electron acceptors. There is no minimum amount of electron acceptor which must be present for at least some of the aldehyde substrate to be converted to its corresponding acid. However, the amount of substrate which can be oxidized depends on the amount of the particular electron acceptor and its electron accepting characteristics.

Experiment [4] has the same target. The method, then: The reaction was started at 25° C. with L-sorbosone, and the enzyme activity was measured as the initial reduction rate of DCIP at 600 nm. […] The extinction coefficience of DCIP at pH 8.0 was taken as 15 mM^−1. A reference cuvette contained all the above constituents except L-sorbosone.
The effects of metal ions and inhibitors on the activity of the enzyme were examined by measuring the activity using the same assay method as described under 1) above. Each compound solution was stirred into the basal reaction mixture and the reaction was started with the addition of the enzyme.

[5] abbreviates: products of the oxidation of the substrates of Table 1A.
[6] abbreviates: oxidation of L-sorbosone to 2-KGA by purified ADH.

Consider `O=C[C@@H](O)[C@H](O)[C@H](O)CO` [D-Arabinose], for which the Product result in experiment [1] (setting [5]) was “D-Arabonic acid”.

For `O=C(O)c1cc(C(=O)O)c2c(n1)C(=O)C(=O)c1cc(C(=O)O)[nH]c1-2` [PQQ, pyrroloquinoline quinone], in experiment [2], the “effect of cofactor addition on enzyme activity” value was “restored”.

For `O=O` [oxygen], the “suitability as electron acceptor” value in experiment [3] was “does not work”.

With “nicotinamide adenine dinucleotide phosphate [NADP]”, the “suitability as electron acceptor” value in experiment [3] (setting [6]) is “not suitable electron acceptors”.

Regarding `O=C(O)CI` [Monoiodoacetate], in experiment [4], the Relative activity worked out at 52.2%.

For the compound `[Cl-].[Cl-].[Mg+2]` [MgCl2], the Relative activity in experiment [4] turned out to be 90.3%.

With `[Cl-].[Cl-].[Zn+2]` [ZnCl2], in experiment [4], the Relative activity was determined as 40.3% and the “effect on enzyme activity (in words)” value was “inhibited the enzyme activity”.

In the case of `COS(=O)(=O)[O-].C[n+]1c2ccccc2nc2ccccc21` [PMS, phenazine methosulfate], the “suitability as electron acceptor” value in experiment [3] (setting [6]) is on record as “oxidizes L-sorbosone to 2-KGA in the presence of electron acceptors”.

On to `O=S(=O)([O-])[O-].O=S(=O)([O-])[O-].O=S(=O)([O-])[O-].[Fe+3].[Fe+3]` [Fe2(SO4)3.xH2O], for which, in experiment [4], the Relative activity is listed as 58.9% and the “effect on enzyme activity (in words)” value is given as “inhibited the enzyme activity”.

Take `O.O.O.O.O.O.O=S(=O)([O-])[O-].[Ni+2]` [NiSO4.6H2O]: in experiment [4], the Relative activity was found to be 74.9% and the “effect on enzyme activity (in words)” value was “inhibited the enzyme activity”.

In the case of `O=C1C=CC(=Nc2cc(Cl)c(O)c(Cl)c2)C=C1` [DCIP, 2,6-dichlorophenolindophenol], the “suitability as electron acceptor” value in experiment [3] (setting [6]) was “oxidizes L-sorbosone to 2-KGA in the presence of electron acceptors”.

With `O=C[C@@H](O)[C@@H](O)[C@H](O)[C@@H](O)CO` [L-Gulose], the Product result in experiment [1] is recorded as “L-Gulonic acid”.

Regarding `O.O.O.O.O.O.[Cl-].[Cl-].[Co+2]` [CoCl2.6H2O], in experiment [4], the Relative activity turned out to be 76.0% and the “effect on enzyme activity (in words)” value is recorded as “inhibited the enzyme activity”.

Turning to `O=C[C@H](O)[C@@H](O)[C@H](O)CO` [D-Xylose], the Product result in experiment [1] (setting [5]) is reported as “D-Xylonic acid”.

For the compound `CCN1C(=O)C=CC1=O` [N-Ethylmaleimide], in experiment [4] (compound at 1.0 mM, None = 100.0), the Relative activity is given as 110.8%.

For the compound `O=CC(=O)[C@@H](O)[C@H](O)[C@@H](O)CO` [L-Sorbosone], in experiment [1] (setting [5]), the Product is 2-KGA. The reaction product identified in experiment [1] (purified enzyme, PMS, PQQ, 1.5 hours at 30 °C, thin layer chromatography and HPLC) was 2-KGA.

As to `O=C[C@H](O)[C@@H](O)[C@@H](O)[C@H](O)CO` [D-Galactose], in experiment [1], the Product entry was “D-Galactonic acid”.

Regarding `O=C[C@H](O)[C@@H](O)[C@H](O)[C@H](O)CO` [D-Glucose], in experiment [1] (setting [5]), the Product result is on record as “D-Gluconate”.

Consider `O=C[C@@H](O)[C@@H](O)[C@H](O)[C@H](O)CO` [D-Mannose], for which, in experiment [1] (setting [5]), the Product entry is “D-Mannoic acid”.

Regarding `[N-]=[N+]=[N-].[Na+]` [NaN3], the Relative activity in experiment [4] is listed as 104.6%.

For `O.O.[Ca+2].[Cl-].[Cl-]` [CaCl2.2H2O], in experiment [4], the Relative activity was determined as 204.5% and the “stimulation of enzyme activity” value is recorded as “about 2 fold”.

For `O=S(=O)([O-])[O-].[Cu+2]` [CuSO4], in experiment [4], the Relative activity stood at 0.0% and the “effect on enzyme activity (in words)” value was “inhibited the enzyme activity”.

For the compound `O=C[C@H](O)[C@H](O)[C@H](O)CO` [D-Ribose], the Product result in experiment [1] (setting [5]) is on record as “D-Ribonic acid”.

Take `O=CC(=O)[C@@H](O)[C@H](O)[C@H](O)CO` [D-Glucosone]: the Product in experiment [1] (setting [5]) is recorded as 2-Keto-D-gluconic acid.

On to cytochrome c, for which, in experiment [3] (setting [6]), the “suitability as electron acceptor” value was “oxidizes L-sorbosone to 2-KGA in the presence of electron acceptors”.

As to `[F-].[Na+]` [NaF], the Relative activity in experiment [4] stood at 86.7%.

Regarding `[Cl][Ti]([Cl])([Cl])[Cl]` [TiCl4], in experiment [4], the Relative activity was 128.0%.

(Values after patent US6846660B2, “Method of making an aldehyde dehydrogenase with gluconobacter” (Roche Vitamins Inc., priority 1997, dated 2005).)
